Values joined by “and” are separate entries in the source; they are usually repeats but may differ in a detail not shown here. Equal values may be shown once.
System: adult patients (aged 18-64 years) with TRD
Assay: Clinician-reported adverse events: incidence and recurrence by Week 1/Week 4 frequency, pooled studies 1 and 2 (ESK + OAD)
Format: in vivo, human
Description: Data were pooled from adult patients (aged 18-64 years) with TRD. Patients had recurrent or single-episode (>2 years) MDD (DSM-5), a Clinician-Rated Inventory of Depressive Symptomatology score of >3 and a total Montgomery-Åsberg Depression Rating Scale (MADRS) score of >2. At screening, depressive symptoms had been non-responsive to adequate trials of ≥1 and ≤5 commercially available OAD in the current depressive episode. Non response was further confirmed by a prospective trial of a different OAD lasting ≥4 weeks and during the screening phase.
In brief, study 1 was a double-blind, placebo-controlled relapse prevention trial comparing the efficacy of ESK versus placebo nasal spray, both in conjunction with a Food and Drug Administration (FDA)-approved OAD, in delaying relapse of depressive symptoms in patients with TRD who were either in stable remission or stable response after four months' treatment with ESK in conjunction with a FDA-approved OAD. Study 2 was an open-label, multicenter study that assessed the long-term safety and efficacy of ESK in conjunction with an FDA-approved OAD in patients with TRD.
The analysis was limited to the two doses of ESK (56 mg and 84 mg) approved for use by the FDA for patients with TRD. Patients received ESK (56 or 84 mg) in conjunction with an OAD twice weekly during the induction phase (Weeks 1-4); once weekly during Weeks 5-8 of the optimization phase: either once weekly or every other week during the remainder of the 12-week optimization phase and the maintenance phase (individualized according to the severity of depressive symptoms [MADRS total score≤/>12] and tolerability).
Patients were monitored for >90 minutes after ESK administration at each treatment session, after which time they could leave the clinical site at the clinician's discretion. AEs were monitored and reported, and safety assessments, including clinical laboratory tests and physical examinations, were conducted throughout the study. Clinician-reported AEs were categorized as mild, moderate, or severe based on clinical judgement (Table 1).
This analysis included any treatment sessions in which patients received ESK (either open-label or blinded). The occurrence and severity of AEs were assessed within the following timeframes: Month 1 (Week 1 and Weeks 2-4), Month 2 (Weeks 5-8), Months 3-6 and Months 6-12. Severity of clinician-reported AEs were scored as 0 (no AE), 1 (mild), 2 (moderate), and 3 (severe). To examine AEs in individual patients over time, only patients who received at least one ESK dose in the following period were included in the analyses of each respective period. Thus, patient data were retained in (i) Week 1 if the patient received ≥1 ESK dose in Weeks 2-4, (ii) Weeks 2-4 if the patient received ≥1 ESK dose in Weeks 5-8, (iii) Weeks 5-8 if the patient received ≥1 ESK dose in Months 3-6, and (iv) Months 3-6 if the patient received ≥1 ESK dose in Months 6-12.
The five most commonly reported treatment-emergent events occurring with ESK plus OAD therapy (dissociation, dizziness, nausea, sedation, and vertigo) were evaluated, each of which has an incidence ≥5% and at least a 2-fold greater incidence than with placebo plus an OAD. 14 Increases in BP were also examined.
Week 1 and Week 4 were set a priori as index weeks because they are the beginning and end of the induction period. Frequencies and maximum-reported severities of AEs reported during these index weeks served as stratifying variables by which to examine recurrence and severities of AE recurrences in future timeframes.

[1] = Months 3-6, overall rate for timeframe
[2] = Months 6-12, AE twice in Week 1
[3] = Months 6-12, overall rate for timeframe
[4] = Week 1, overall rate for timeframe
[5] = Weeks 2-4, overall rate for timeframe
[6] = Weeks 5-8, overall rate for timeframe
[7] = human, in vivo, other: nasal spray, 1 week

## CN[C@]1(c2ccccc2Cl)CCCCC1=O [esketamine, (S)-2-(2-chlorophenyl)-2-(methylamino)cyclohexanone]
8 participants who had vomiting twice during week 1
  vomiting during later periods: none experienced vomiting during later periods
AE not reported in week 1
  participants experiencing an AE after any subsequent treatment session: < 10%
Months 3-6, AE once in Week 1
  Clinician-reported dissociation: 26.2%
  Clinician-reported increased blood pressure: 36.4%
  Clinician-reported sedation: 0%
  Dizziness: 31.2%
  Nausea: 20.8%
  Vertigo: 28.6%
Months 3-6, AE twice in Week 1
  Clinician-reported dissociation: 61.1%
  Clinician-reported increased blood pressure: 40.0%
  Clinician-reported sedation: 36.4%
  Dizziness: 53.0%
  Nausea: 33.3%
  Vertigo: 59.5%
Months 3-6, No AE in Week 1
  Clinician-reported dissociation: 7.6%
  Clinician-reported increased blood pressure: 3.0%
  Clinician-reported sedation: 3.0%
  Dizziness: 7.5%
  Nausea: 4.5%
  Vertigo: 3.4%
Months 3-6, None in Week 1
  Anxiety: 1.2%
  Feeling Drunk: 0.2%
  Hypoesthesia: 2.5%
  Lethargy: 0.2%
  Vomiting: 1.9%
Months 3-6, Once in Week 1
  Anxiety: 10.0%
  Feeling Drunk: 16.7%
  Hypoesthesia: 20.7%
  Lethargy: 40.0%
  Vomiting: 21.1%
Months 3-6, Overall
  Anxiety: 1.5%
  Feeling Drunk: 1.5%
  Hypoesthesia: 5.2%
  Lethargy: 0.5%
  Vomiting: 2.5%
Months 3-6, Twice in Week 1
  Anxiety: 50.0%
  Feeling Drunk: 100.0%
  Hypoesthesia: 73.3%
  Lethargy: 0%
  Vomiting: 0%
[1]
  Clinician-reported dissociation: 14.4%
  Clinician-reported increased blood pressure: 4.2%
  Clinician-reported sedation: 3.5%
  Dizziness: 15.6%
  Nausea: 7.2%
  Vertigo: 8.2%
Months 6-12, AE once in Week 1
  Clinician-reported dissociation: 18.5%
  Clinician-reported increased blood pressure: 9.1%
  Clinician-reported sedation: 0%
  Dizziness: 20.8%
  Nausea: 18.2%
  Vertigo: 23.8%
[2]
  Clinician-reported dissociation: 33.3%
  Clinician-reported increased blood pressure: 20.0%
  Clinician-reported sedation: 45.5%
  Dizziness: 21.2%
  Nausea: 8.3%
  Vertigo: 38.1%
Months 6-12, No AE in Week 1
  Clinician-reported dissociation: 4.6%
  Clinician-reported increased blood pressure: 1.7%
  Clinician-reported sedation: 1.7%
  Dizziness: 4.0%
  Nausea: 4.9%
  Vertigo: 1.7%
Months 6-12, None in Week 1
  Anxiety: 2.1%
  Feeling Drunk: 0.2%
  Hypoesthesia: 1.6%
  Lethargy: 1.6%
  Vomiting: 1.9%
Months 6-12, Once in Week 1
  Anxiety: 0%
  Feeling Drunk: 33.3%
  Hypoesthesia: 13.8%
  Lethargy: 0%
  Vomiting: 10.5%
Months 6-12, Overall
  Anxiety: 2.2%
  Feeling Drunk: 1.5%
  Hypoesthesia: 3.2%
  Lethargy: 0.2%
  Vomiting: 2.2%
Months 6-12, Twice in Week 1
  Anxiety: 50.0%
  Feeling Drunk: 85.7%
  Hypoesthesia: 40.0%
  Lethargy: 0%
  Vomiting: 0%
[3]
  Clinician-reported dissociation: 8.8%
  Clinician-reported increased blood pressure: 2.2%
  Clinician-reported sedation: 2.5%
  Dizziness: 8.1%
  Nausea: 6.7%
  Vertigo: 5.0%
[4]
  Clinician-reported dissociation: 17.1%
  Clinician-reported increased blood pressure: 4.4%
  Clinician-reported sedation: 3.9%
  Dizziness: 21.1%
  Nausea: 14.3%
  Vertigo: 12.4%
Weeks 2-4, AE once in Week 1
  Clinician-reported dissociation: 48.2%
  Clinician-reported increased blood pressure: 56.5%
  Clinician-reported sedation: 36.8%
  Dizziness: 51.9%
  Nausea: 28.6%
  Vertigo: 67.4%
Weeks 2-4, AE twice in Week 1
  Clinician-reported dissociation: 86.5%
  Clinician-reported increased blood pressure: 77.8%
  Clinician-reported sedation: 70.6%
  Dizziness: 86.4%
  Nausea: 61.9%
  Vertigo: 90.3%
Weeks 2-4, No AE in Week 1
  Clinician-reported dissociation: 5.6% and 5.7%
  Clinician-reported increased blood pressure: 2.4%
  Clinician-reported sedation: 2.1%
  Dizziness: 6.3%
  Nausea: 5.3%
  Vertigo: 5.5%
Weeks 2-4, None in Week 1
  Anxiety: 1.3%
  Feeling Drunk: 0.4%
  Hypoesthesia: 3.7%
  Lethargy: 1.0%
  Vomiting: 2.4%
Weeks 2-4, Once in Week 1
  Anxiety: 11.8%
  Feeling Drunk: 30.8%
  Hypoesthesia: 54.3%
  Lethargy: 71.4%
  Vomiting: 31.0%
Weeks 2-4, Overall
  Anxiety: 1.7%
  Feeling Drunk: 1.9%
  Hypoesthesia: 7.2%
  Lethargy: 1.5%
  Vomiting: 3.3%
Weeks 2-4, Twice in Week 1
  Anxiety: 100%
  Feeling Drunk: 90.9%
  Hypoesthesia: 76.2%
  Lethargy: 0%
  Vomiting: 0%
[5]
  Clinician-reported dissociation: 16.1%
  Clinician-reported increased blood pressure: 5.2%
  Clinician-reported sedation: 4.1%
  Dizziness: 19.2%
  Nausea: 9.4%
  Vertigo: 15.0%
Weeks 5-8, AE once in Week 1
  Clinician-reported dissociation: 29.8%
  Clinician-reported increased blood pressure: 40.9%
  Clinician-reported sedation: 22.2%
  Dizziness: 30.8%
  Nausea: 16.1%
  Vertigo: 45.2%
Weeks 5-8, AE twice in Week 1
  Clinician-reported dissociation: 60.0%
  Clinician-reported increased blood pressure: 55.6%
  Clinician-reported sedation: 52.9%
  Dizziness: 62.5%
  Nausea: 30.0%
  Vertigo: 67.6%
Weeks 5-8, No AE in Week 1
  Clinician-reported dissociation: 6.1%
  Clinician-reported increased blood pressure: 1.9%
  Clinician-reported sedation: 1.2%
  Dizziness: 3.7%
  Nausea: 1.7%
  Vertigo: 3.0%
Weeks 5-8, None in Week 1
  Anxiety: 0.8%
  Feeling Drunk: 0.1%
  Hypoesthesia: 1.6%
  Lethargy: 1.1%
  Vomiting: 1.5%
Weeks 5-8, Once in Week 1
  Anxiety: 5.9%
  Feeling Drunk: 16.7%
  Hypoesthesia: 20.7%
  Lethargy: 40.0%
  Vomiting: 21.1%
Weeks 5-8, Overall
  Anxiety: 1.0%
  Feeling Drunk: 1.6%
  Hypoesthesia: 3.4%
  Lethargy: 1.2%
  Vomiting: 1.8%
Weeks 5-8, Twice in Week 1
  Anxiety: 50.0%
  Feeling Drunk: 90.9%
  Hypoesthesia: 58.3%
  Lethargy: 0%
  Vomiting: 0%
[6]
  Clinician-reported dissociation: 12.6%
  Clinician-reported increased blood pressure: 3.9%
  Clinician-reported sedation: 2.6%
  Dizziness: 12.5%
  Nausea: 4.0%
  Vertigo: 9.9%
All subsequent postdose monitoring periods, no increased blood pressure in week 1
  increased blood pressure reported: < 4%
Dissociation twice in week 1
  dissociation as an AE into months 3-6: > 50%
Dizziness not reported in week 1 (exception)
  dizziness at 3-6 months: 11.6%
[7]
  patients who did not have increased blood pressure during week 1: 95.7%
  patients who did not report dissociation during week 1: 83.2%
  patients who did not report nausea during week 1: 86.0%
Most pronounced with dissociation and dizziness
  impact of dose (56 or 84 mg modal dose) on AE recurrence: small dose effect
Remainder of induction period, no dissociation in week 1
  dissociation occurred: < 10%
Subsequent postdose monitoring periods, no nausea in week 1
  nausea reported: < 6%

Source: patent US20240390295A1, “METHODS FOR TREATING DEPRESSION” (JANSSEN PHARMACEUTICA NV, priority 2020, published 2024)
